The record followed here is article PMC8769072, “Proteome‐scale mapping of binding sites in the unstructured regions of the human proteome” (Molecular Systems Biology, 2022).

The subject of this experiment is immobilized GST-tagged bait protein domains. Description: ProP-PD phage selections (HD2 P8, sublibraries, HD2 P3, HD1 P8) with NGS and confidence level. As to conditions: for HD2_nucleus confidence: library HD2 P8 nucleus. In kind it is binding, human.
Where [1] appears, read: library HD2, bait EPS15_EH__P42566_121_215, whether the validated benchmark motif instance was recovered in the ProP-PD selection (TRUE/FALSE).
Where [2] appears, read: bait MAP1LC3A_ATG8 (Q9H492 2-121), HD2 library, benchmark motif instance recovered in the ProP-PD selection (TRUE/FALSE).
Where [3] appears, read: bait MAP1LC3B_ATG8 (Q9GZQ8 2-119), HD2 library, benchmark motif instance recovered in the ProP-PD selection (TRUE/FALSE).
[4] abbreviates: HD2 library, bait TNKS_TANK-peptide-bind__O95271_174_649, known motif instance of the benchmarking set found (TRUE) or not found (FALSE) among selected peptides.
Where [5] appears, read: bait KPNA4_Arm (O00629 68-487), HD2 library, benchmark motif instance recovered in the ProP-PD selection (TRUE/FALSE).
[6] abbreviates: bait WDR5_WD_1234567_P61964_21_334.
The mark [7] stands for this setting: bait PABP-B_PABP__P11940_544_623, HD2 library, whether the validated benchmark motif instance was recovered in the ProP-PD selection (TRUE/FALSE).
Where [8] appears, read: library HD2, bait YAP1_WW_1_P46937_169_207, validated benchmark motif instance, in_library_check TRUE, TRUE/FALSE = instance recovered in ProP-PD selection.
Where [9] appears, read: HD2 library, bait SUMO1_SUMO__P63165_1_101, known motif instance of the benchmarking set found (TRUE) or not found (FALSE) among selected peptides.
[10] abbreviates: bait CALM1_EF-hand__P0DP23_2_149, library HD2, benchmarking set of validated motif instances, TRUE = motif instance recovered in the ProP-PD selection.

For the setting “bait TLN1_PTB__Q9Y490_309_401, library HD”, FPTDERSWVYSPLHYS gave an HD confidence of 3. Moreover, the p3_HD2 confidence (bait TLN1_PTB__Q9Y490_309_401, library HD2 P3) is 2. Under “bait TLN1_PTB__Q9Y490_309_401, library HD2 P3, mean normalised NGS counts”, the p3_HD2 count proportions turned out to be 0.001295. Under “bait TLN1_PTB__Q9Y490_309_401, library HD2 P3, mean raw NGS counts, all selections”, the p3_HD2 mean counts is reported as 12.2. Where the note is “bait TLN1_PTB__Q9Y490_309_401, library HD2 P8”, the HD2 confidence came out at 4. Moreover, the HD2_nc confidence (bait TLN1_PTB__Q9Y490_309_401, library HD2 P8 nucleocytoplasmic) is recorded as 3. This substance yielded an HD2_nc count proportions (bait TLN1_PTB__Q9Y490_309_401, library HD2 P8 nucleocytoplasmic, mean normalised NGS counts) of 0.1307. Under “bait TLN1_PTB__Q9Y490_309_401, library HD2 P8 nucleocytoplasmic, mean raw NGS counts, all selections”, this substance had an HD2_nc mean counts of 5802.8. In addition, for the setting “bait TLN1_PTB__Q9Y490_309_401, library HD, mean normalised NGS counts”, the HD count proportions is recorded as 0.08207. The same substance had an HD mean counts (bait TLN1_PTB__Q9Y490_309_401, library HD, mean raw NGS counts, all selections) of 2181. FPTGSSSTNPFL-------: the motif_found result under setting [1] is listed as “FALSE”. As to “FRHRLWAVLTVQAYARGMIARRLHQRLRAEY [MYO7A 840-856]”, the motif_found result (HD2 library, bait CALM1_EF-hand__P0DP23_2_149, benchmark motif instance, in_library_check FALSE, in_library_coverage 0) was “FALSE”. In the case of FRPENEEDILVVTTQGEVE, the motif_found entry by setting is: under setting [2], “FALSE”; under setting [3], “FALSE”. Turning to GAQASVGSRSEGEGEAASADDG, the motif_found entry under setting [4] is on record as “FALSE”. As for GCMKTCPLIDLEVDNGPAQ [GGA2], the motif_found entry (bait CLTC_Clathrin-propeller__Q00610_1_364, library HD2, benchmarking set of validated motif instances, TRUE = motif instance recovered in the ProP-PD selection) is “FALSE”. Regarding GDSQGRKRRQTSMTDFYHSKRRLIFSKRKP-, the motif_found result under setting [5] was “FALSE”. With GEAWGHSSRTSPLDNV, the HD2_nucleus confidence under setting [6] is 4. Regarding GEYVRVKLQLNPAAREFKPDVKSKPVS, under setting [7], the motif_found result is recorded as “FALSE”. In the case of GGFDTEPDEFSDFDRLRTALPTSG [EPN1], the motif_found result (bait AP2B1_adaptin__P63010_700_937, library HD2, benchmarking set of validated motif instances, TRUE = motif instance recovered in the ProP-PD selection) is given as “FALSE”. Regarding GGMNWADLLPPPPAHP, where the note is “library HD2, bait VASP_EVH1__P50552_1_114, confidence level of best matching selected peptide (4 High, 2-3 Medium, 1 Low)”, the best_confidence stood at 3. For the setting “library HD2, bait VASP_EVH1__P50552_1_114, specificity score of best matching selected peptide”, this substance displayed a best_specificity of 0.99. For the same substance, where the note is “library HD2, bait VASP_EVH1__P50552_1_114, validated benchmark motif instance, in_library_check TRUE, TRUE/FALSE = instance recovered in ProP-PD selection”, the motif_found result is on record as “TRUE”.

Consider GHPESPPRKRLKSKGSDKDF, for which the motif_found entry under setting [5] is on record as “FALSE”. On to GHSPPPAYTPMSGNQF, for which the best_confidence (library HD2, bait YAP1_WW_1_P46937_169_207, confidence level of best matching selected peptide (4 High, 2-3 Medium, 1 Low)) is 3. Besides, the best_specificity (library HD2, bait YAP1_WW_1_P46937_169_207, specificity score of best matching selected peptide) is recorded as 1. Further, the motif_found result under setting [8] is listed as “TRUE”. Substance GHSSRTSPLDNVGREL registered an HD2_nucleus confidence under setting [6] of 4. GLAFGAFTNPFTAPAAQSP: the motif_found result under setting [1] was “FALSE”. With GMEHRGPPPEYPFKGMPP, the motif_found result reads like this: (bait NEDD4_WW_4_P46934_890_928, HD2 library, whether the validated benchmark motif instance was recovered in the ProP-PD selection (TRUE/FALSE)) “FALSE”; under setting [8], “FALSE”. As for GNVIRWHNQETGEQIAIKQC, where the note is “library HD2, bait Keap1_KELCH__Q14145_321_609, whether the validated benchmark motif instance was recovered in the ProP-PD selection (TRUE/FALSE)”, the motif_found entry is listed as “FALSE”. Take GPLRPVLEYIDLVSSDDEEPSTSYTD: the motif_found result under setting [9] was “FALSE”. For the substance GPPSLNYIPPVLQLSG, the best_specificity (bait CEP55_EABR__Q53EZ4_160_217, library HD2, best matching peptide) is recorded as 1. This substance displayed a best_confidence (bait CEP55_EABR__Q53EZ4_160_217, library HD2, confidence level of best matching peptide (4 = High, 2 or 3 = Medium, 1 = Low)) of 2. With GPTPTEPPPPYSFRPE, where the note is “bait NEDD4_WW_4_P46934_890_928, HD2 P8 cytoplasm sublibrary, confidence level (4 = High, 2-3 = Medium, 1 = Low)”, the HD2_cytoplasm confidence turned out to be 4. GQSLKVMPCLAPIAAKVGS: the motif_found result (library HD2, bait ZMYND11_coiled-coil-MYND__Q15326_480_602, validated benchmark motif instance, in_library_check TRUE, TRUE/FALSE = instance recovered in ProP-PD selection) was “FALSE”. Regarding GRAQAEQWAAEFIQQQGTS, the motif_found result (bait PEX14_Pex14__O75381_16_84, HD2 library, whether the validated benchmark motif instance was recovered in the ProP-PD selection (TRUE/FALSE)) was “FALSE”. For GRDSPPSWRPQPDGEASQTEDV, under setting [4], the motif_found entry is given as “FALSE”. Take GSSGNTHDDFVMIDFKPAFS: the motif_found result under setting [3] is on record as “FALSE”. As to GTNPTLVSVPNPVFGSDTFCEP, for the setting “HD2 library, bait TLN1_PTB__Q9Y490_309_401, known motif instance of the benchmarking set found (TRUE) or not found (FALSE) among selected peptides”, the motif_found entry is reported as “FALSE”. Regarding “GYRQSPDGACSV,YRQSPDGACS,LRNSATGYRQSPDGACSVPSAR,YRQSPDGACSV [LNPEP 95-102]”, the motif_found result (HD2 library, bait TNKS_TANK-peptide-bind__O95271_174_649, benchmark motif instance, in_library_check FALSE, in_library_coverage 0) is reported as “FALSE”. For the substance HDDFVMIDFKPAFSKD, under setting [2], the motif_found result is reported as “TRUE”. Under “bait MAP1LC3A_ATG8 (Q9H492 2-121), HD2 library, confidence level (1-4) of best matching peptide”, this substance registered a best_confidence of 3. For the setting “bait MAP1LC3A_ATG8 (Q9H492 2-121), HD2 library, specificity score of best matching peptide”, this substance came in with a best_specificity of 1. Take HLNNDSSTTIIIDSSDETTESPTVGTAQ: the motif_found result under setting [9] is “FALSE”. The substance HPAPSWVAFAHTGAWG gave an HD2 confidence (bait AP2B1_adaptin__P63010_700_937, HD2 P8 selection, non primary paralogue peptide match, confidence level -4 to 4: 4 = High, 3 or 2 = Medium, 1 = Low, 0 = Filtered/Noise) of 3.

In the case of “HTPRLPTLPKRVP,RRAFWHTPRLPTLPKRVPRAGEAR [CCDC8]”, the motif_found result (bait ANKRA2_Ank__Q9H9E1_142_313, library HD2, benchmarking set of validated motif instances, TRUE = motif instance recovered in the ProP-PD selection) is “FALSE”. The substance IIYDRKFLMECRNSPV displayed a best_specificity (library HD2, bait EIF4E_eIF4E__P06730_1_217, best matching peptide) of 1. The same substance showed a best_confidence (library HD2, bait EIF4E_eIF4E__P06730_1_217, confidence level of best matching peptide (4 High, 2-3 Medium, 1 Low)) of 2. Further, the motif_found entry (library HD2, bait EIF4E_eIF4E__P06730_1_217, whether the validated benchmark motif instance was recovered in the ProP-PD selection (TRUE/FALSE)) is listed as “TRUE”. As to ILSKSNLNPDAKEFIP, the best_confidence (bait PABP-B_PABP__P11940_544_623, HD2 library, confidence level (1-4) of best matching selected peptide) is reported as 2. Besides, under “bait PABP-B_PABP__P11940_544_623, HD2 library, specificity score of best matching selected peptide”, the best_specificity is listed as 1. In addition, the motif_found result under setting [7] was “TRUE”. As to IPDTPSPTVSVITISSDTDE, under setting [9], the motif_found result is listed as “FALSE”. For the substance IPSAPLYEEITYSGIS, the best_specificity (HD2 library, bait TSG101_UEV__Q99816_1_145, best matching selected peptide) was 1. For the setting “HD2 library, bait TSG101_UEV__Q99816_1_145, confidence level of best matching selected peptide”, this substance gave a best_confidence of 3. Further, the motif_found result (HD2 library, bait TSG101_UEV__Q99816_1_145, known motif instance of the benchmarking set found (TRUE) or not found (FALSE) among selected peptides) is given as “TRUE”.

Take IQPDSPAPNPFSEEDEHPQ: the motif_found entry under setting [1] is “FALSE”. Take IREHVTGCARSEGFYTIDKKD: for the setting “library HD2, bait WDR5_WD_1234567_P61964_21_334, validated benchmark motif instance, in_library_check TRUE, TRUE/FALSE = instance recovered in ProP-PD selection”, the motif_found result is given as “FALSE”. For the substance IYKSAVTTVVNPKYEGK----- [ITGB1 789-796], the motif_found entry (HD2 library, bait TLN1_PTB__Q9Y490_309_401, benchmark motif instance, in_library_check FALSE, in_library_coverage 0) is recorded as “FALSE”. Regarding KATVEKPSNPFSGDLQKTF, under setting [1], the motif_found result was “FALSE”. For the substance “KDKEEVQRKRQKLMPNFSDS,IKDKEEVQRKRQKLMPNFSD [NFKB1 361-365]”, under “HD2 library, bait KPNA4_Arm__O00629_68_487, benchmark motif instance, in_library_check FALSE, in_library_coverage 0”, the motif_found result is given as “FALSE”.

As to KDLATVNSNPFDDPDAAEL, the motif_found result under setting [1] is “FALSE”.

With KEPGGSRAHSSHLKSKKGQ, the motif_found result (library HD2, bait USP7_MATH-TRAF__Q93009_53_206, validated benchmark motif instance, in_library_check TRUE, TRUE/FALSE = instance recovered in ProP-PD selection) is “FALSE”. For KILRLSGKP, the motif_found result (bait MAD2L1_HORMA (Q13257 1-205), HD2 library, benchmark motif instance recovered in the ProP-PD selection (TRUE/FALSE)) was “FALSE”. With KISPPTPKPRPPRPLPVAPGS, the motif_found entry (library HD2, bait YES1_SH3__P07947_90_152, validated benchmark motif instance, in_library_check TRUE, TRUE/FALSE = instance recovered in ProP-PD selection) was “FALSE”. With KKAFVHMPTLPNLDFHKTGDGL, the motif_found result (library HD2, bait ANKRA2_Ank__Q9H9E1_142_313, motif instance NOT in library (in_library_check FALSE, in_library_coverage 0)) was “FALSE”. Turning to KKKATFRAITSTLASSFKRR [GRIN1], under setting [10], the motif_found entry is on record as “FALSE”. Take KKRFSFKKSFKLSGFSFK [MARCKS]: under setting [10], the motif_found entry is given as “FALSE”.
